{"source": "patent US5072032A", "about": "“Preparation and use of thiophosphonates and thio-analogues of phosphonoformic acid” (priority 1989, dated 1991)", "key": {"human DNA polymerase β": {"biological_target": "T1, human DNA polymerase β (Homo sapiens, UniProt P06746)", "T1 construct": "Mammalian DNA polymerases alpha, beta, gamma, and delta were partially purified from K562 celles; endogenous in cells; host or cells: K562 (chronic myelogenous leukemia tissue culture line)", "experiment": "Human DNA polymerase inhibition, beta", "format": "biochemical", "conditions": "for remaining activity at 100 µM: read-out: % Control at 100 μM ± S.D.", "excerpt": "(§1) Viral DNA polymerases (HSV-1, HSV-2, EBV) were purified by previously published methods (Derce, D. K. F. Bastow, and Y. C. Cheng (1982) J. Boil. Chem. 257:10251-10260; Ostrander, M., and Y. C. Cheng (1980) Biochim. Biophys. Acta 609:232-245; Tan, R. S., A. Datta. and Y. C. Cheng (1982) J. Virol. 44:893-899). These procedures generally included sequential chromatography on DEAE-cellulose. HIV reverse transcriptase was purified by antibody affinity column chromatography as descrbed (Starnes. M. C. and Y. C. Cheng (1989) J. Biol. Chem. 264:7073-7077). The purified enzymes were dialyzed against and stored in 50 mM Tris-HCl (pH 7.5) containing 1 mM each of DTT, EDTA and PMSF plus 30% glycerol. Mammalian DNA polymerases alpha, beta, gamma, and delta were partially purified from K562 celles (chronic myelogenous leukemia tissue culture line). Briefly, washed cell pellets were extracted and passed throgh DEAE-cellulose in the presence of 300 mM KPO4 (pH 7.5) as previously described (Starnes, M. C., and Y. C. Cheng (1987) J. Biol. Chem 282:988-981) to remove DNA. The column flow-through fractions were dialyzed against buffer which contained 50 mM Tris-HCl (pH 7.5), and fractionated on a single-stranded DNA-cellulose column with a 0-1M KCl gradient.\n(§2) In accordance with the teaching of the present invention similar enzyme inhibition assays were also conducted with respect to mammalian enzymes, more particularly, human DNA polymerase."}, "HSV-1": {"test_system": "HSV-1", "conditions": "reported by Hutchinson et al.; cited from earlier work"}, "HIV-1 (HTLV-IIIB)": {"test_system": "HIV-1 (HTLV-IIIB)", "experiment": "HIV inhibition in cell culture, p24 antigen capture assay in H9 lymphocytes", "format": "cell-based", "procedure": "In addition to testing the activity of TPFA against HIV enzyme, the activity against the virus itself was also determined in accordance with the following protocol. The experimental protocol involved incubatino of H9 lymphocytes (3.5×10^6 cells/ml) in the presence or absence of HIV-1 (HTLV-IIIB) for one hour at 37° C. Cells were washed thoroughly to remove unabsorbed virions and re-suspended at 4×10^5 cells/ml in culture medium. Aliquots (1 ml) were placed in wells of 24 well culture plates containing any equal volume of test compound (diluted in culture medium). After incubation for three days at 37° C., cell density of uninfected cultures was determined to assess toxicity of the test compound. A p24 antigen capture was used to determine the level of HIV infection in HIV treated cultures. The ability of test compounds to inhibit HIV replication was measured at different concentrations relative to infected, untreated cultures. Test compounds were considered to be active if p24 levels were <70% of infected, untreated cultures. Cytotoxicity in uninfect4ed H9 cells was not detected."}, "HSV-2 DNA polymerase": {"biological_target": "T2, HSV-2 DNA polymerase (Human herpesvirus 2, UniProt P89453)", "T2 construct": "made in house", "T2 sequence (P89453 whole entry)": "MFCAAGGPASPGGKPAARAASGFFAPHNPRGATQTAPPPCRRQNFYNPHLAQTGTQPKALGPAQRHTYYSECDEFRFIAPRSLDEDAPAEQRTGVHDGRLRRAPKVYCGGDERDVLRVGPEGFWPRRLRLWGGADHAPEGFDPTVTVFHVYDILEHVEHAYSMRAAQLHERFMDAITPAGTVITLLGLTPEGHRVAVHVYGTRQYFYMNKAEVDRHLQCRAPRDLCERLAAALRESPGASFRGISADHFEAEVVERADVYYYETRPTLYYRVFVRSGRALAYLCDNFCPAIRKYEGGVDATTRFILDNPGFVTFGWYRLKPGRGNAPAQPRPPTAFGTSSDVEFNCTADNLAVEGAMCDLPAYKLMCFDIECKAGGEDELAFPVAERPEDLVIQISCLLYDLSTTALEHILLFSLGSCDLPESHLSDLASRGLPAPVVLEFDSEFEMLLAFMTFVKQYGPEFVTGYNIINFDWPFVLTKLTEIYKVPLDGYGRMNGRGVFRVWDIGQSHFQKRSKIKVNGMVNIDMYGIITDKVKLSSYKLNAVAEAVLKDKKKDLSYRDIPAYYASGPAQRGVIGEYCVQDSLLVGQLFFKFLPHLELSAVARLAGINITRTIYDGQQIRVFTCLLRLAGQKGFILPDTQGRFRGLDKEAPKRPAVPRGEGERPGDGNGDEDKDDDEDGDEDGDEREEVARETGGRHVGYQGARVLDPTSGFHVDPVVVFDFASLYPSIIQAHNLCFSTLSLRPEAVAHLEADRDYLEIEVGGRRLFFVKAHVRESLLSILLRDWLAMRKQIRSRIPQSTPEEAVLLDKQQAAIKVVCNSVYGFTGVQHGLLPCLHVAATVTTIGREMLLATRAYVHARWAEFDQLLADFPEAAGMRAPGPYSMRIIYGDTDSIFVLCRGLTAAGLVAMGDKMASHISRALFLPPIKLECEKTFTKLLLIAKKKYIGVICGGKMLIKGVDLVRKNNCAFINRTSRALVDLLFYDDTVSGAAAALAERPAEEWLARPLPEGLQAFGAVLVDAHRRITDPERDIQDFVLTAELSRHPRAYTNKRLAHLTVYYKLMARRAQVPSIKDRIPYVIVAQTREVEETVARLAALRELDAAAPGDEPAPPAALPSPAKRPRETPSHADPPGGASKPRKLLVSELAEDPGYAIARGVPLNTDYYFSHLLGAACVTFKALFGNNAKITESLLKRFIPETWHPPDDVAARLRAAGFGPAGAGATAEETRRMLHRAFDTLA", "experiment": "Viral polymerase inhibition, HSV-2", "format": "biochemical", "excerpt": "as §1\nStandard assays were run at 37° C. and contained: 50 mM Tris, pH b 8.0, 0.5 mM DTT, 8 mM MgCl2, 100 μg/mL BSA, 150 μg/mL gapped calf thymus DNA, 100 μM each dATP, dCTP, dGTP, 10 .parallel.M [^3 H]-dTTP, and 1-5 .parallel.L enzyme in a final volume of 50 .parallel.L. Modified assays for pH dependence inhibition studies with PFA (1) and α--oxo phosphonates (4 and 5) contained 50 mM Hepes, pH 8.2-6.5, 8 mM MgCl2, 100 mM KCl, 100 μg/ml BSA, 0.5 A260 units/ml of poly(rA).(dT)10, 100 μM [^3 H]dTTP, and 1.5 .parallel.L enzyme in a final volume of 50 μL. Samples were processed as described above."}, "human DNA polymerase δ": {"test_system": "human DNA polymerase δ", "experiment": "Human DNA polymerase inhibition, delta", "format": "biochemical", "conditions": "Pol δ, \"activated\" DNA; for IC50: read-out: ID50 (the source's name)", "excerpt": "as §1, §2"}, "HV-6 polymerase": {"biological_target": "HV-6 polymerase (Human herpesvirus 6A, UniProt P28857)", "sequence (P28857 whole entry)": "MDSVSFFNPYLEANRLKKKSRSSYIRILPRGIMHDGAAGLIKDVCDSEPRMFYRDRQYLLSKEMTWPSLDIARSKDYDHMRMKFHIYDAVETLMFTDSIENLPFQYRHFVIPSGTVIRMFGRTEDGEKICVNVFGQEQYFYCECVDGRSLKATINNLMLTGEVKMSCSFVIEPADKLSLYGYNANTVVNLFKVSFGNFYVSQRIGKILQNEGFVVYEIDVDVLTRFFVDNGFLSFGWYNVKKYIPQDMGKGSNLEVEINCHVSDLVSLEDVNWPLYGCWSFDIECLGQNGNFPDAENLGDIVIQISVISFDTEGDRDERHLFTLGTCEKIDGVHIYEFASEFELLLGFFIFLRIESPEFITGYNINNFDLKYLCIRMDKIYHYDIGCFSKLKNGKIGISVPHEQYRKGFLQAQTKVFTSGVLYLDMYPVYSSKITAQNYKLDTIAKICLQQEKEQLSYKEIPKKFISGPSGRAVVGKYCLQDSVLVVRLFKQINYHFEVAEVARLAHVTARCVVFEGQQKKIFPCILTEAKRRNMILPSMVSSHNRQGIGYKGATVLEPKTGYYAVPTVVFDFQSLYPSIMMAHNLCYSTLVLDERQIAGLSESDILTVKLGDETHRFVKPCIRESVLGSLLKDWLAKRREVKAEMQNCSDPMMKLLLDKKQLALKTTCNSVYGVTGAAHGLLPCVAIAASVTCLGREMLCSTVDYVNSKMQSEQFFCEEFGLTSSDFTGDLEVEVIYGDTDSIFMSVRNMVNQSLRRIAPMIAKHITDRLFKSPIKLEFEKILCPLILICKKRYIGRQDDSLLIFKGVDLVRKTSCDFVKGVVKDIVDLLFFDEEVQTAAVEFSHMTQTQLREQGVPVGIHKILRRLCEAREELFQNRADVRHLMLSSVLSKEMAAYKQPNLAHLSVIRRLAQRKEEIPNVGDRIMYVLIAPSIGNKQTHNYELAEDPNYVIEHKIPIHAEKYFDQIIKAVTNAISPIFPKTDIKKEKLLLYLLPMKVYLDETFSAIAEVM", "experiment": "Viral polymerase inhibition, HV-6", "format": "biochemical, Herpes Virus 6"}, "[1]": {"conditions": "Human immunodeficiency virus 1, IIIB, H9, 72 h, read-out: p24 Ave (%)"}}, "note": "Where two headings read alike, the source gives them in different places."}
{"smiles": "O=C(O)P(O)(O)=S", "note": "[TPFA, thiophosphonoformic acid]", "values": [{"measurement": "IC50", "setting": "human DNA polymerase β", "result": "> 100", "unit": "µM"}, {"measurement": "remaining activity at 100 µM", "setting": "human DNA polymerase β", "result": "91 ± 4", "unit": "%"}, {"measurement": "relative ID50 values with respect to HSV-1", "setting": "HSV-1", "result": 9}, {"measurement": "activity at 0.1 µg/mL", "setting": "HIV-1 (HTLV-IIIB); [1]", "result": 139, "unit": "%"}, {"measurement": "activity at 0.5 µg/mL", "setting": "HIV-1 (HTLV-IIIB); [1]", "result": 117, "unit": "%"}, {"measurement": "activity at 2 µg/mL", "setting": "HIV-1 (HTLV-IIIB); [1]", "result": 90, "unit": "%"}, {"measurement": "activity at 10 µg/mL", "setting": "HIV-1 (HTLV-IIIB); [1]", "result": 35, "unit": "%"}, {"measurement": "activity at 50 µg/mL", "setting": "HIV-1 (HTLV-IIIB); [1]", "result": 0, "unit": "%"}, {"measurement": "activity at 200 µg/mL", "setting": "HIV-1 (HTLV-IIIB); [1]", "result": -3, "unit": "%"}, {"measurement": "Inhibition Score", "setting": "HIV-1 (HTLV-IIIB); drug conc. 10 μg/mL", "result": "** (**25-49% control p24)"}, {"measurement": "Inhibition Score", "setting": "HIV-1 (HTLV-IIIB); drug conc. 50 μg/mL", "result": "*** (***<25% control p24)"}, {"measurement": "Inhibition Score", "setting": "HIV-1 (HTLV-IIIB); drug conc. 200 μg/mL", "result": "*** (***<25% control p24)"}, {"measurement": "IC50", "setting": "HSV-2 DNA polymerase", "result": 11.3, "unit": "µM"}, {"measurement": "effectiveness of TPFA relative to PFA", "setting": "HSV-2 DNA polymerase; HSV-2 enzyme, ratio of ID50 values of Table I", "result": "fifteen to twenty times less effective"}, {"measurement": "% Control at 100 μM ± S.D.", "setting": "human DNA polymerase δ", "result": "69 ± 6", "unit": "%"}, {"measurement": "IC50", "setting": "human DNA polymerase δ", "result": "> 100", "unit": "µM"}, {"measurement": "IC50", "setting": "HV-6 polymerase", "result": 70, "unit": "µM"}, {"measurement": "effectiveness of TPFA relative to PFA", "setting": "HV-6 polymerase; Herpes Virus 6 enzyme, ratio of ID50 values of Table I", "result": "more than seventy times less effective"}]}
{"smiles": "O=C(O)P(=O)(O)O", "note": "[PFA, phosphonoformic acid]", "values": [{"measurement": "remaining activity at 100 µM", "setting": "human DNA polymerase β; Pol β, 100 μM, \"activated\" DNA", "result": "89 ± 8", "unit": "%"}, {"measurement": "IC50", "setting": "human DNA polymerase β; Pol β, \"activated\" DNA, read-out: ID50 (the source's name)", "result": "> 100", "unit": "µM"}, {"measurement": "relative ID50 values with respect to HSV-1", "setting": "HSV-1", "result": 12}, {"measurement": "activity at 1.9 µg/mL", "setting": "HIV-1 (HTLV-IIIB); Human immunodeficiency virus 1, IIIB, H9, 72 h, drug conc. 1.9 μg/mL, % of infected untreated control p24, read-out: p24 Ave (%)", "result": 88, "unit": "%"}, {"measurement": "activity at 7.5 µg/mL", "setting": "HIV-1 (HTLV-IIIB); Human immunodeficiency virus 1, IIIB, H9, 72 h, drug conc. 7.5 μg/mL, % of infected untreated control p24, read-out: p24 Ave (%)", "result": 35, "unit": "%"}, {"measurement": "activity at 30 µg/mL", "setting": "HIV-1 (HTLV-IIIB); Human immunodeficiency virus 1, IIIB, H9, 72 h, drug conc. 30 μg/mL, % of infected untreated control p24, read-out: p24 Ave (%)", "result": 10, "unit": "%"}, {"measurement": "activity at 120 µg/mL", "setting": "HIV-1 (HTLV-IIIB); Human immunodeficiency virus 1, IIIB, H9, 72 h, drug conc. 120 μg/mL, % of infected untreated control p24, read-out: p24 Ave (%)", "result": -2, "unit": "%"}, {"measurement": "Inhibition Score", "setting": "HIV-1 (HTLV-IIIB); drug conc. 7.5 μg/mL", "result": "** (**25-49% control p24)"}, {"measurement": "Inhibition Score", "setting": "HIV-1 (HTLV-IIIB); drug conc. 30 μg/mL", "result": "*** (***<25% control p24)"}, {"measurement": "Inhibition Score", "setting": "HIV-1 (HTLV-IIIB); drug conc. 120 μg/mL", "result": "*** (***<25% control p24)"}, {"measurement": "IC50", "setting": "HSV-2 DNA polymerase; HSV-2, \"activated\" DNA, read-out: ID50 (the source's name)", "result": 0.7, "unit": "µM"}, {"measurement": "% Control at 100 μM ± S.D.", "setting": "human DNA polymerase δ", "result": "36 ± 3", "unit": "%"}, {"measurement": "IC50", "setting": "human DNA polymerase δ", "result": 71, "unit": "µM"}, {"measurement": "IC50", "setting": "HV-6 polymerase; HV-6, \"activated\" DNA, read-out: ID50 (the source's name)", "result": 1, "unit": "µM"}]}
